According to a compilation of properties of binary mixtures (doi:10.1007/s10953-012-9875-7):

Test: xn = mol fraction of the nth substance listed
Conditions: 101 kPa

CCCC[n+]1ccc(C)cc1.N#C[S-] + O
viscosity [mPa·s]
Conditions | 298.15 K | 308.15 K | 318.15 K | 328.15 K | 338.15 K | 348.15 K
x1 = 0.0076 | 1.07 | 0.87 | – | 0.63 | 0.57 | 0.52
x2 = 0 | 86 | 51.75 | – | 23.5 | – | 12.86
x2 = 0.0564 | – | 46 | 30.4 | 21.3 | 15.54 | 11.74
x2 = 0.1655 | 57.6 | 36.4 | 24.6 | 17.5 | – | –
x2 = 0.278 | 43.1 | 28 | 19.3 | 13.95 | 10.49 | 8.18
x2 = 0.3797 | 31.3 | 20.9 | 14.68 | 10.87 | – | 6.62
x2 = 0.4628 | 24.8 | 16.8 | 12.14 | 9.17 | – | 5.73
x2 = 0.5669 | 17.8 | 12.47 | 9.17 | 7.02 | – | –
x2 = 0.6364 | 14.06 | – | 7.48 | 5.78 | 4.58 | 3.69
x2 = 0.7623 | 8.6 | 6.3 | 4.78 | 3.7 | – | 2.44
x2 = 0.8333 | 6.04 | 4.45 | 3.37 | 2.66 | 2.08 | 1.62
x2 = 0.9028 | 3.65 | 2.74 | 2.13 | – | 1.41 | 1.24
x2 = 0.957 | 1.98 | 1.53 | 1.23 | – | 0.86 | –
x2 = 0.9714 | – | – | – | – | – | 0.64

CCCC[n+]1ccn(C)c1.N#C[S-] + O
viscosity [mPa·s]
Conditions | 298.15 K | 308.15 K | 318.15 K | 328.15 K | 338.15 K | 348.15 K
x2 = 0 | 51.74 | 34.9 | 24.2 | – | 12.73 | 9.98
x2 = 0.0998 | 40.2 | 26.9 | 19.1 | – | 10.98 | 8.73
x2 = 0.2007 | – | – | – | 12.2 | 9.53 | 7.61
x2 = 0.3169 | – | 18.1 | – | 10.12 | – | 6.4
x2 = 0.4346 | 19.5 | 13.91 | 10.4 | 8.04 | 6.37 | 5.14
x2 = 0.5296 | 15.17 | 10.96 | 8.29 | 6.44 | – | –
x2 = 0.6426 | 10.8 | 7.95 | 6.05 | – | 3.76 | 3.1
x2 = 0.7201 | 8.27 | 6.14 | – | – | 2.96 | 2.48
x2 = 0.7949 | 5.95 | 4.36 | 3.33 | 2.67 | – | 1.86
x2 = 0.8733 | 3.75 | 2.84 | 2.23 | 1.82 | 1.51 | 1.28
x2 = 0.9444 | 2.02 | 1.58 | 1.27 | 1.05 | 0.9 | 0.78
